Patent US20240352021A1 (DANA-FARBER CANCER INSTITUTE, INC., priority 2021, published 2024)

Experiments:
[1] = target: EGFR mutant L858R Ba/F3 cells (Homo sapiens, UniProt P00533, L858R, cells depend on it); assay: Ba/F3 cell proliferation (Cell Titer Glo), EGFR L858R; assay type: cell-based, murine; conditions: 72 hours, Table 6, read-out: L858R BaF3
Procedure, shortened: (§1)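 Retrovirally transduced, puromycin-selected Ba/F3 cells expressing EGFR L858R or L858R/C797S, grown in RPMI + 10% FBS, exposed to compounds for 72 h in triplicate. Viability by Cell Titer Glo ATP luminescence; IC50 from sigmoidal dose-response fit, binned A <0.1, B 0.1–0.5, C 0.5–2.5, D ≥2.5 μM.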

EGFR L858R/T790M = EGFR L858R/T790M (Homo sapiens, UniProt P00533, L858R/T790M); assay: EGFR biochemical assay (headed HTRF-based; method describes Z'-LYTE), L858R/T790M; conditions: Table 4
EGFR L858R/T790M, sequence (P00533 25-1210 T790M/L858R): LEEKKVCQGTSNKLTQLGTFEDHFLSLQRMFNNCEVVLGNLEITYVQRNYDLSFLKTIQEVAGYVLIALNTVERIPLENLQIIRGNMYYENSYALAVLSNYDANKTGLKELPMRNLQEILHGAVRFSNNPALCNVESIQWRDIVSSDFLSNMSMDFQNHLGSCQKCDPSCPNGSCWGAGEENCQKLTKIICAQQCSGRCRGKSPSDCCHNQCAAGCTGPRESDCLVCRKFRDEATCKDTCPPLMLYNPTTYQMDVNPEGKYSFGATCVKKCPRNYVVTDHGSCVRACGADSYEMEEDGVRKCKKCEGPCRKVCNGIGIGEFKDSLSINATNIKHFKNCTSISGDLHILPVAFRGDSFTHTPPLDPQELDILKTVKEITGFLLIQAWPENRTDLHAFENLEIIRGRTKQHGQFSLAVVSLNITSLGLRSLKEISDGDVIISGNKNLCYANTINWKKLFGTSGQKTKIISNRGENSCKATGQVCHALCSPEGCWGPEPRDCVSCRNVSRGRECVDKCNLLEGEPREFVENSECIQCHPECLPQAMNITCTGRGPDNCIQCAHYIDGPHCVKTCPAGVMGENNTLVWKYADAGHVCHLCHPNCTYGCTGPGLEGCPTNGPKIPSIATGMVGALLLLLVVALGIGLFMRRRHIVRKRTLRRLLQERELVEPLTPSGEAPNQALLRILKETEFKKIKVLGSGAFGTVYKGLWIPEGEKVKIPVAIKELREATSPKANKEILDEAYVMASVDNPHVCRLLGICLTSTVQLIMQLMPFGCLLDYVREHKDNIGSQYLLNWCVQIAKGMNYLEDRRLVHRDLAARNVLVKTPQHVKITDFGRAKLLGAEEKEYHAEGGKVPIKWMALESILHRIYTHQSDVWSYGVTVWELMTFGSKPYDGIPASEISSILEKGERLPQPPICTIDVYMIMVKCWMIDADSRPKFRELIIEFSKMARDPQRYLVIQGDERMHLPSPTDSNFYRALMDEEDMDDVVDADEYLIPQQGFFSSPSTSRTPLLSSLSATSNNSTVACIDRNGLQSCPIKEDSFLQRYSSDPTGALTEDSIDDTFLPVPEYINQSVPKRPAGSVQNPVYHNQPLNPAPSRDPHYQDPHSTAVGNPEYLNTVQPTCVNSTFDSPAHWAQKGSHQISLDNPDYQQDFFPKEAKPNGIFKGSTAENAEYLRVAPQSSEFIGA
Method: (§2) To measure the IC50 values of compounds herein against EGFR, a Z′-LYTE assay (ThermoFisher) was used. Briefly, 2.5 μL of different concentrations of the compounds in 4% DMSO were added to 5 μL kinase/peptide mixture in each well of a 384-well plate (Corning Cat. #3676). 2.5 μL of 4× ATP solution (4× ATP, 50 mM HEPES, pH 7.5, 0.01% BRIJ-35, 10 mM MgCl2, 1 mM EGTA) were added to each well. The plate was shaken for 30 seconds, and then incubated at room temperature for 60 minutes. 5 μL of a 1:100000 dilution of Development Reagent A was added to each well. The plate was then incubated for 60 mins at room temperature. 5 μL of the stop reagent was then added. The plate was subsequently read on a fluorescence plate reader, and the emissions ratio was calculated to determine the ratio of Ser/Thr 07 phosphorylated by the reaction. Emissions Ratio═Coumarin Emission (443 nm)/Flourescein Emission (520 nm).
(§3) HTRF-based EGFR assay data are provided below in Table 4.

EGFR L858R = EGFR L858R (Homo sapiens, UniProt P00533, L858R); assay: EGFR biochemical assay (headed HTRF-based; method describes Z'-LYTE), L858R; conditions: Table 4
EGFR L858R, sequence (P00533 25-1210 L858R): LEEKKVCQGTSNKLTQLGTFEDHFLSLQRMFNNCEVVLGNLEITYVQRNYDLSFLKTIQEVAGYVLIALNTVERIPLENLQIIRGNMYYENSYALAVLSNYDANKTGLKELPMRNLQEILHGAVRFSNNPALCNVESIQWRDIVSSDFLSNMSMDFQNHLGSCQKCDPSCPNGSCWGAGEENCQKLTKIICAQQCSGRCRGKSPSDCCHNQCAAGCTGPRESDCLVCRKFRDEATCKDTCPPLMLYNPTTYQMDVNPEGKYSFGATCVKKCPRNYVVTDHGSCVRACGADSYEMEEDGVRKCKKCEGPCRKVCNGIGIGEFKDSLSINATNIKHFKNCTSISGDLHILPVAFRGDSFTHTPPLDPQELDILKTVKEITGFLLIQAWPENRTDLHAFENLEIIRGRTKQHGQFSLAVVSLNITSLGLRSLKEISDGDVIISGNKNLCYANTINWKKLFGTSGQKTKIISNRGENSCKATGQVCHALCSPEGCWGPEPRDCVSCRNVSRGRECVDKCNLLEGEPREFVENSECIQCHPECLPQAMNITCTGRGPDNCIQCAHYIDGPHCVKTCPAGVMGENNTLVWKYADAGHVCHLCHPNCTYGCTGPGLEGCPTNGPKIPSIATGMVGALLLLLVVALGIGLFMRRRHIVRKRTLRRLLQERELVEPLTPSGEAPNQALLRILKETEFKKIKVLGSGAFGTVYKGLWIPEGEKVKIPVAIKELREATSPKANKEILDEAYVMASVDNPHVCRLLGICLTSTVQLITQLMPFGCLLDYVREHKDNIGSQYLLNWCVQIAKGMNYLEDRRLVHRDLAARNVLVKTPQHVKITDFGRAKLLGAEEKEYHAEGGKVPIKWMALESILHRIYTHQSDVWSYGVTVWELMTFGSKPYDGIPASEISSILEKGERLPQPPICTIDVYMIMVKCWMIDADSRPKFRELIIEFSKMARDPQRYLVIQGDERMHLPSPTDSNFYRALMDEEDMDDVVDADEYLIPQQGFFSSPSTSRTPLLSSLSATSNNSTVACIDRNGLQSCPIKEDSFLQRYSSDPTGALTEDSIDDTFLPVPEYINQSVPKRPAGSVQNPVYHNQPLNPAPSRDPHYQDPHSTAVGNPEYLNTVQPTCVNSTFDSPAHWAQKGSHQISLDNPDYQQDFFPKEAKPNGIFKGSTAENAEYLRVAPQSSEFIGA
Method: as §2, §3

[2] = target: EGFR L858R/C797S Ba/F3 cells (Homo sapiens, UniProt P00533, C797S/L858R, cells depend on it); assay: Ba/F3 cell proliferation (Cell Titer Glo), EGFR L858R/C797S; assay type: cell-based, murine; conditions: 72 hours, Table 6
EGFR L858R/C797S Ba/F3 cells, sequence (P00533 whole entry C797S/L858R): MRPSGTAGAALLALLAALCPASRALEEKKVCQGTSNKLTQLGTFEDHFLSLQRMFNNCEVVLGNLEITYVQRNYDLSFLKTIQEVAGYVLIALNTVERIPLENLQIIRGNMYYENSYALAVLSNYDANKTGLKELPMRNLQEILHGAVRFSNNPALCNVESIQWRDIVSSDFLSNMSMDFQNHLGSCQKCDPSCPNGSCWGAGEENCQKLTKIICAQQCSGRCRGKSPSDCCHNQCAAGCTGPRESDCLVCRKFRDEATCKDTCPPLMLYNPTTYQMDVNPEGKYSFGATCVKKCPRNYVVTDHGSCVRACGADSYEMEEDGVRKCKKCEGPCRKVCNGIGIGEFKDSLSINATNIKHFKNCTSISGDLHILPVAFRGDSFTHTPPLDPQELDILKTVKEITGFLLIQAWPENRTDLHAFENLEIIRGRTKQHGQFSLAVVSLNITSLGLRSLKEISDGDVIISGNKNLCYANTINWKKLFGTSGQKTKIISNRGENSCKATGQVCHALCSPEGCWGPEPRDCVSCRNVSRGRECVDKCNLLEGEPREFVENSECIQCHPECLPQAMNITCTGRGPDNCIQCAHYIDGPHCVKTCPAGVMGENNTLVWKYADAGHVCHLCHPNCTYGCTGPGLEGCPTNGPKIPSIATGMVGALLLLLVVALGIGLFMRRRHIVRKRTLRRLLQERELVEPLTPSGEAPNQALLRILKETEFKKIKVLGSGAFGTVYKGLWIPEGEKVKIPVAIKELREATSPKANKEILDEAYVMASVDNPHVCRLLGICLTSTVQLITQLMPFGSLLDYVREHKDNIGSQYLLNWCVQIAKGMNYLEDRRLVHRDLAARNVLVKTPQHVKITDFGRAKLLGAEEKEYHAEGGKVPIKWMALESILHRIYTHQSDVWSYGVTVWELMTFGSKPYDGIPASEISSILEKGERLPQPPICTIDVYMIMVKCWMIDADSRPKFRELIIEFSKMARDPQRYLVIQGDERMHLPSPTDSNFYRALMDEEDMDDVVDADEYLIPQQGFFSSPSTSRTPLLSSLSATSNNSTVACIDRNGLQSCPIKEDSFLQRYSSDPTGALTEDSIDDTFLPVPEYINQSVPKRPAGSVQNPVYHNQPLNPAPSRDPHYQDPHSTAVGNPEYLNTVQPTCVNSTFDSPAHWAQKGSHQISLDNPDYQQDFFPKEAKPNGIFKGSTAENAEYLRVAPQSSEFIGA
Procedure, shortened: as §1

EGFR mutant L858R Ba/F3 cells, sequence (P00533 whole entry L858R): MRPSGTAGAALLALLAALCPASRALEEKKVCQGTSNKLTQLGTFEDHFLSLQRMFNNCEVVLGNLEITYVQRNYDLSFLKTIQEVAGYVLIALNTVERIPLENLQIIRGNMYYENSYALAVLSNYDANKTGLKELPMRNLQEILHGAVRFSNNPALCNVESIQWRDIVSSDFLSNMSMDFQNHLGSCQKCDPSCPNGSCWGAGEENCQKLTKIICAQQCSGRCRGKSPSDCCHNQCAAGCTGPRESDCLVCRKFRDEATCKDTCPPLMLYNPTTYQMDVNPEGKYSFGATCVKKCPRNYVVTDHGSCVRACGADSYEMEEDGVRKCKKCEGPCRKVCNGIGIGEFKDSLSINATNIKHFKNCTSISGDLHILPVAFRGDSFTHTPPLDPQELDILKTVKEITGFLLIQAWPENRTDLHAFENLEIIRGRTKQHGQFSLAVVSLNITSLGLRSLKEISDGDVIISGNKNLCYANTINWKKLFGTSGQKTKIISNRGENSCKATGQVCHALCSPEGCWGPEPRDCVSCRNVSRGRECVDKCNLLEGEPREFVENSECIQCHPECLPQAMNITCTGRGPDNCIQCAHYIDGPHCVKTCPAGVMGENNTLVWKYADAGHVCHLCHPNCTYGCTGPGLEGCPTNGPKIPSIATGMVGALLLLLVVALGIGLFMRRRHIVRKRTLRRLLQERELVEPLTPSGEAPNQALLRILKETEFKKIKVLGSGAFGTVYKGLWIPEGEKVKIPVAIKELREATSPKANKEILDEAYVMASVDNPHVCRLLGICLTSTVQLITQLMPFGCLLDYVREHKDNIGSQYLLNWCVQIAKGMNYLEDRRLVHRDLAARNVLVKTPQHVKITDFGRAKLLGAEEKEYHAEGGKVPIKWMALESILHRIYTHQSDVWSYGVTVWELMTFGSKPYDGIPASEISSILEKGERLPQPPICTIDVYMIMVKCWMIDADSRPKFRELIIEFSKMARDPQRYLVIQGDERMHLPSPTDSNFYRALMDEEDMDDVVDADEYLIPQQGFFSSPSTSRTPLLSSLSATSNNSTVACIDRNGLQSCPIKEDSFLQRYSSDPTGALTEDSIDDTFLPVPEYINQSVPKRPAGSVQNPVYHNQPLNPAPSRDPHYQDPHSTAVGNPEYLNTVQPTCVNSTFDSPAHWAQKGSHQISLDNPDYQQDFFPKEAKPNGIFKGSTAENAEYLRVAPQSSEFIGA

SMILES	GI50 [1] [µM]	IC50 (EGFR L858R/T790M) [µM]	IC50 (EGFR L858R) [µM]	GI50 [2] [µM]
C=CC(=O)N1c2ccccc2[C@@H](N2Cc3cnc(Nc4ccc(N5CCN(C)CC5)cc4)nc3N(C)C2=O)C[C@@H]1C [Compound 135, 1-methyl-7-[4-(4-methylpiperazin-1-yl)anilino]-3-[(2S,4S)-2-methyl-1-prop-2-enoyl-3,4-dihydro-2H-quinolin-4-yl]-4H-pyrimido[4,5-d]pyrimidin-2-one]	< 0.1	> 1	0.00089	< 0.1
C=C(CN1CCC(N2Cc3cnc(Nc4ccc(N5CCN(C)CC5)cc4)nc3N(C)C2=O)C1)C(=O)O (centres unmarked) [Compound 136, 2-[[3-[1-methyl-7-[4-(4-methylpiperazin-1-yl)anilino]-2-oxo-4H-pyrimido[4,5-d]pyrimidin-S-yl]pyrrolidin-1-yl]methyl]prop-2-enoic acid]	≥ 2.5	> 1	> 1	≥ 2.5
C=C(CN1CC(N2Cc3cnc(Nc4ccc(N5CCN(C)CC5)cc4)nc3N(C)C2=O)C1)C(=O)O [Compound 137, 2-[[3-[1-methyl-7-[4-(4-methylpiperazin-1-yl)anilino]-2-oxo-4H-pyrimido[4,5-d]pyrimidin-S-yl]azetidin-1-yl]methyl]prop-2-enoic acid]	≥ 2.5	> 1	> 1	≥ 2.5
C=CC(=O)N1C[C@@H](N2Cc3cnc(Nc4ccc(N5CCN(C)CC5)cc4)nc3N(C)C2=O)C[C@@H]1C(=O)O [Compound 138, (2R,4S)-4-[1-methyl-7-[4-(4-methylpiperazin-1-yl)anilino]-2-oxo-4H-pyrimido[4,5-d]pyrimidin-S-yl]-1-prop-2-enoyl-pyrrolidine-2-carboxylic acid]	≥ 2.5	> 1	> 1	≥ 2.5
C=CC(=O)N(C)c1ccccc1CN1Cc2cnc(Nc3ccc(N4CCN(C)CC4)cc3)nc2N(C)C1=O [Compound 139, N-methyl-N-[2-[[1-methyl-7-[4-(4-methylpiperazin-1-yl)anilino]-2-oxo-4H-pyrimido[4,5-d]pyrimidin-S-yl]methyl]phenyl]prop-2-enamide]	0.1 to 0.5	> 1	> 1	0.5 to 2.5
C=CC(=O)N1CCC12CC(N1Cc3cnc(Nc4ccc(N5CCN(C)CC5)cc4)nc3N(C)C1=O)C2 (stereo not drawn) [Compound 142, 1-methyl-7-[4-(4-methylpiperazin-1-yl)anilino]-S-(1-prop-2-enoyl-1-azaspiro[3.3]heptan-6-yl)-4H-pyrimido[4,5-d]pyrimidin-2-one]	0.5 to 2.5	> 1	> 1	≥ 2.5
C=CC(=O)N1CC[C@H](N2Cc3cnc(Nc4ccc(N5CCN(C)CC5)cc4)nc3N(C)C2=O)C[C@@H]1CO [Compound 146, 3-[(2R,4S)-2-(hydroxymethyl)-1-prop-2-enoyl-4-piperidyl]-1-methyl-7-[4-(4-methylpiperazin-1-yl)anilino]-4H-pyrimido[4,5-d]pyrimidin-2-one]	0.5 to 2.5	> 1	> 1	≥ 2.5
C=C1CC[C@H]2C[C@@H](N3Cc4cnc(Nc5ccc(N6CCN(C)CC6)cc5)nc4N(C)C3=O)CCN2C1=O [Compound 157, 1-methyl-S-(7-methylene-6-oxo-2,3,4,8,9,9a-hexahydro-1 H-quinolizin-2-yl)-7-[4-(4-methylpiperazin-1-yl)anilino]-4H-pyrimido[4,5-d]pyrimidin-2-one]	≥ 2.5	> 1	> 1	≥ 2.5
C=CC(=O)Nc1cccc(N2C(=O)N(C3CCN(C(=O)C=C)c4ccccc43)Cc3cnc(Nc4ccc(N5CCN(C)CC5)cc4)nc32)c1 (stereo not drawn) [Compound 158, N-[3-[7-[4-(4-methylpiperazin-1-yl)anilino]-2-oxo-S-(1-prop-2-enoyl-3,4-dihydro-2H-quinolin-4-yl)-4H-pyrimido[4,5-d]pyrimidin-1-yl]phenyl]prop-2-enamide]	< 0.1	0.00071	0.00107	< 0.1
C=CC(=O)N1CCC(N2Cc3cnc(Nc4ccc(N5CCN(C)CC5)cc4)nc3N(C)C2=O)C(c2ccccc2)C1 (centres unmarked) [Compound 159]	0.5 to 2.5	> 0.1	> 0.1	≥ 2.5

Now from value to molecule:

GI50 [1] [µM]	IC50 (EGFR L858R/T790M) [µM]	IC50 (EGFR L858R) [µM]	GI50 [2] [µM]	SMILES
< 0.1	> 1	0.00097	< 0.1	C=CC(=O)N1CC[C@H](N2Cc3cnc(Nc4ccc(N5CCN(C)CC5)cc4)nc3N(C)C2=O)c2cccc(C)c21 [Compound 140, 1-methyl-7-[4-(4-methylpiperazin-1-yl)anilino]-S-[(4S)-8-methyl-1-prop-2-enoyl-3,4-dihydro-2H-quinolin-4-yl]-4H-pyrimido[4,5-d]pyrimidin-2-one]
0.1 to 0.5	> 1	> 1	0.1 to 0.5	C=CC(=O)N1CC[C@@H](N2Cc3cnc(Nc4ccc(N5CCN(C)CC5)cc4)nc3N(C)C2=O)c2cccc(C)c21 [Compound 141]
0.5 to 2.5	> 1	> 1	≥ 2.5	C=CC(=O)N1CCC(N2Cc3cnc(Nc4ccc(N5CCN(C)CC5)cc4)nc3N(C)C2=O)c2cccc(C(F)(F)F)c21 (stereo not drawn) [Compound 143, 1-methyl-7-[4-(4-methylpiperazin-1-yl)anilino]-S-[1-prop-2-enoyl-8-(trifluoromethyl)-3,4-dihydro-2H-quinolin-4-yl]-4H-pyrimido[4,5-d]pyrimidin-2-one]
< 0.1	> 1	0.00157	< 0.1	C=CC(=O)N1CC[C@H](N2Cc3cnc(Nc4ccc(CS(C)(=O)=O)cc4)nc3N(C)C2=O)c2cccc(C)c21 [Compound 144]
< 0.1	> 1	0.00177	< 0.1	C=CC(=O)N1CC[C@H](N2Cc3cnc(Nc4ccc(CS(=O)(=O)NC)cc4)nc3N(C)C2=O)c2cccc(C)c21 [Compound 145]
0.5 to 2.5	> 1	> 1	≥ 2.5	C=CC(=O)N1CCC(N2Cc3cnc(Nc4ccc(N5CCN(C)CC5)cc4)nc3N(C)C2=O)c2cccc(Cl)c21 (centres unmarked) [Compound 147, 3-(8-chloro-1-prop-2-enoyl-3,4-dihydro-2H-quinolin-4-yl)-1-methyl-7-[4-(4-methylpiperazin-1-yl)anilino]-4H-pyrimido[4,5-d]pyrimidin-2-one]
0.5 to 2.5	> 1	> 1	0.5 to 2.5	C=CC(=O)N1CCC(N2Cc3cnc(Nc4ccc(N5CCN(C)CC5)cc4)nc3N(C)C2=O)c2cccc(C#N)c21 (centres unmarked) [Compound 150, 4-[1-methyl-7-[4-(4-methylpiperazin-1-yl)anilino]-2-oxo-4H-pyrimido[4,5-d]pyrimidin-S-yl]-1-prop-2-enoyl-3,4-dihydro-2H-quinoline-8-carbonitrile]
< 0.1	> 1	0.00086	< 0.1	C=CC(=O)N1CC[C@H](N2Cc3cnc(Nc4ccc(N5CCN(C)CC5)cc4)nc3N(C3CCOC3)C2=O)c2cccc(C)c21 (stereo partly drawn) [Compound 151, 7-[4-(4-methylpiperazin-1-yl)anilino]-S-[(4S)-8-methyl-1-prop-2-enoyl-3,4-dihydro-2H-quinolin-4-yl]-1-tetrahydrofuran-S-yl-4H-pyrimido[4,5-d]pyrimidin-2-one]
< 0.1	> 1	0.00117	< 0.1	C=CC(=O)N1CC[C@H](N2Cc3cnc(Nc4ccc(N5CCN(C)CC5)cc4)nc3N(C3CC(O)C3)C2=O)c2cccc(C)c21 (stereo partly drawn) [Compound 152, 1-(3-hydroxycyclobutyl)-7-[4-(4-methylpiperazin-1-yl)anilino]-S-[(4S)-8-methyl-1-prop-2-enoyl-3,4-dihydro-2H-quinolin-4-yl]-4H-pyrimido[4,5-d]pyrimidin-2-one]
< 0.1	> 1	0.00088	< 0.1	C=CC(=O)N1CC[C@H](N2Cc3cnc(Nc4ccc(N5CCN(C)CC5)cc4)nc3N(CCO)C2=O)c2cccc(C)c21 [Compound 153, 1-(2-hydroxyethyl)-7-[4-(4-methylpiperazin-1-yl)anilino]-S-[(4S)-8-methyl-1-prop-2-enoyl-3,4-dihydro-2H-quinolin-4-yl]-4H-pyrimido[4,5-d]pyrimidin-2-one]
